Results taken from PubChem BioAssay AID256 (DTP/NCI, 2004).
Where “and” joins values, the source holds several entries; their conditions need not be identical. Equal entries are not always repeated. Inconclusive results and toxic doses are left out.

System: CD2F1 mice, L1210 leukemia ip, survival T/C
Experiment: NCI In Vivo Anticancer Drug Screen. Data for tumor model L1210 Leukemia (intraperitoneal) in CD2F1 (CDF1) mice
Conditions: higher = longer survival
Procedure, shortened: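 Implant tumor; dose compound or vehicle; measure endpoint in both groups; report treated divided by control.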

[1] = endpoint: mean survival time, dose: 100.0 mg/kg/injection, schedule: Q01DX009 (ip), vehicle: saline with Tween-80
[2] = endpoint: mean survival time, dose: 100.0 mg/kg/injection, schedule: Q04DX003 (ip), vehicle: saline with Tween-80
[3] = endpoint: mean survival time, dose: 200.0 mg/kg/injection, schedule: Q01DX009 (ip), vehicle: saline with Tween-80
[4] = endpoint: mean survival time, dose: 200.0 mg/kg/injection, schedule: Q04DX003 (ip), vehicle: saline with Tween-80
[5] = endpoint: mean survival time, dose: 400.0 mg/kg/injection, schedule: Q01DX009 (ip), vehicle: saline with Tween-80
[6] = endpoint: mean survival time, dose: 400.0 mg/kg/injection, schedule: Q04DX003 (ip), vehicle: saline with Tween-80
[7] = endpoint: mean survival time, dose: 100.0 mg/kg/injection, schedule: Q04DX002 (ip), vehicle: saline
[8] = endpoint: mean survival time, dose: 200.0 mg/kg/injection, schedule: Q04DX002 (ip), vehicle: saline
[9] = endpoint: mean survival time, dose: 6.25 mg/kg/injection, schedule: Q01DX009 (ip), vehicle: saline
[10] = endpoint: mean survival time, dose: 12.5 mg/kg/injection, schedule: Q01DX009 (ip), vehicle: saline

SMILES: O=P(O)(O)OC1OC(n2cnc3c(NCc4ccc(F)cc4)ncnc32)C(O)C1O (stereo not drawn)
- T/C (endpoint: median survival time, dose: 12.5 mg/kg/injection, schedule: Q01DX005 (ip), vehicle: saline): 101 % of control
- T/C (endpoint: median survival time, dose: 25.0 mg/kg/injection, schedule: Q01DX005 (ip), vehicle: saline): 101 % of control
- T/C (endpoint: median survival time, dose: 50.0 mg/kg/injection, schedule: Q01DX005 (ip), vehicle: saline): 92 % of control
- T/C (endpoint: median survival time, dose: 100.0 mg/kg/injection, schedule: Q01DX005 (ip), vehicle: saline): 92 % of control
- T/C (endpoint: median survival time, dose: 200.0 mg/kg/injection, schedule: Q01DX005 (ip), vehicle: saline): 100 % of control

SMILES: CC[n+]1c(-c2ccccc2)c2cc(N)ccc2c2ccc(N)cc21
- T/C (endpoint: mean survival time, dose: 1.0 mg/kg/injection, schedule: Q01DX009 (ip), vehicle: water): 106 % of control
- T/C (endpoint: mean survival time, dose: 2.0 mg/kg/injection, schedule: Q01DX009 (ip), vehicle: water): 112 % of control
- T/C (endpoint: mean survival time, dose: 2.5 mg/kg/injection, schedule: Q01DX005 (ip), vehicle: water): 101 % of control
- T/C (endpoint: mean survival time, dose: 4.0 mg/kg/injection, schedule: Q01DX009 (ip), vehicle: water): 116 % of control
- T/C (endpoint: mean survival time, dose: 5.0 mg/kg/injection, schedule: Q01DX005 (ip), vehicle: water): 105 % of control
- T/C (endpoint: mean survival time, dose: 8.0 mg/kg/injection, schedule: Q01DX009 (ip), vehicle: water): 122 % of control
- T/C (endpoint: mean survival time, dose: 10.0 mg/kg/injection, schedule: Q01DX005 (ip), vehicle: water): 114 % of control
- T/C (endpoint: mean survival time, dose: 16.0 mg/kg/injection, schedule: Q01DX009 (ip), vehicle: water): 104 % of control

SMILES: CCCCNC(=O)CCC(=O)O
- T/C [1]: 109 % of control
- T/C [2]: 99 % of control
- T/C [3]: 94 % of control
- T/C [4]: 99 % of control
- T/C [5]: 96 % of control
- T/C [6]: 95 % of control

SMILES: [Cl][Cr][Cl].[NH-]CC[NH-].[NH-]CC[NH-]
- T/C [7]: 95 % of control
- T/C [8]: 95 % of control
- T/C (endpoint: mean survival time, dose: 400.0 mg/kg/injection, schedule: Q04DX002 (ip), vehicle: saline): 88 % of control

SMILES: [B-][N+]12CN3CN(CN(C3)C1)C2
- T/C (endpoint: mean survival time, dose: 75.0 mg/kg/injection, schedule: Q01DX001 (ip), vehicle: saline): 101 % of control

SMILES: Cc1ccc(C2(c3ccccc3)OC(=O)c3ccccc32)cc1 (stereo not drawn)
- T/C [1]: 86 % of control
- T/C [2]: 89 % of control
- T/C [4]: 87 % of control
- T/C [6]: 86 % of control

SMILES: O=C1NCCCN1O
- T/C (endpoint: mean survival time, dose: 100.0 mg/kg/injection, schedule: Q04DX003 (ip), vehicle: saline): 104 % of control
- T/C (endpoint: mean survival time, dose: 200.0 mg/kg/injection, schedule: Q04DX003 (ip), vehicle: saline): 100 % of control
- T/C (endpoint: mean survival time, dose: 400.0 mg/kg/injection, schedule: Q04DX003 (ip), vehicle: saline): 112 % of control

SMILES: O=C(O)Cc1c(Cl)n(-c2ccccc2)c2ccccc12
- T/C (endpoint: mean survival time, dose: 25.0 mg/kg/injection, schedule: Q04DX003 (ip), vehicle: saline with Tween-80): 96 % of control
- T/C (endpoint: mean survival time, dose: 50.0 mg/kg/injection, schedule: Q04DX003 (ip), vehicle: saline with Tween-80): 102 % of control
- T/C [2]: 104 % of control

SMILES: C1C[N-]CC[N-]CC[N-]CC[N-]1.[Cl][Rh][Cl]
- T/C (endpoint: mean survival time, dose: 1.56 mg/kg/injection, schedule: Q01DX009 (ip), vehicle: saline): 100 % of control
- T/C (endpoint: mean survival time, dose: 3.13 mg/kg/injection, schedule: Q01DX009 (ip), vehicle: saline): 102 % of control
- T/C [9]: 100 % of control
- T/C [10]: 98 % of control and 108 % of control

SMILES: O=C(O)C1CCOC1=O (stereo not drawn)
- T/C (endpoint: mean survival time, dose: 50.0 mg/kg/injection, schedule: Q04DX002 (ip), vehicle: saline): 107 % of control
- T/C [7]: 98 % of control
- T/C [8]: 98 % of control

SMILES: O=CNc1ccc2c(c1)C(O)c1ccccc1-2 (stereo not drawn)
- T/C (endpoint: mean survival time, dose: 62.5 mg/kg/injection, schedule: Q04DX003 (ip), vehicle: saline with Tween-80): 103 % of control
- T/C (endpoint: mean survival time, dose: 125.0 mg/kg/injection, schedule: Q04DX003 (ip), vehicle: saline with Tween-80): 98 % of control
- T/C (endpoint: mean survival time, dose: 250.0 mg/kg/injection, schedule: Q04DX003 (ip), vehicle: saline with Tween-80): 97 % of control

SMILES: O=S1(=O)OCCC1=C(c1ccccc1)c1ccccc1
- T/C (endpoint: mean survival time, dose: 75.0 mg/kg/injection, schedule: Q04DX003 (ip), vehicle: saline): 95 % of control
- T/C (endpoint: mean survival time, dose: 150.0 mg/kg/injection, schedule: Q04DX003 (ip), vehicle: saline): 97 % of control
- T/C (endpoint: mean survival time, dose: 300.0 mg/kg/injection, schedule: Q04DX003 (ip), vehicle: saline): 91 % of control

SMILES: C=C(C)CNC1=C(C)C(=O)C2=C(C1=O)[C@@H](COC(N)=O)[C@]1(OC)[C@@H]3N[C@@H]3CN21
- T/C (endpoint: mean survival time, dose: 1.5 mg/kg/injection, schedule: Q01DX001 (ip), vehicle: water): 97 % of control
- T/C (endpoint: mean survival time, dose: 3.0 mg/kg/injection, schedule: Q01DX001 (ip), vehicle: water): 103 % of control
- T/C (endpoint: mean survival time, dose: 6.0 mg/kg/injection, schedule: Q01DX001 (ip), vehicle: distilled water + Tween-80): 104 % of control
- T/C (endpoint: mean survival time, dose: 6.0 mg/kg/injection, schedule: Q01DX001 (ip), vehicle: water): 103 % of control
- T/C (endpoint: mean survival time, dose: 12.0 mg/kg/injection, schedule: Q01DX001 (ip), vehicle: distilled water + Tween-80): 114 % of control
- T/C (endpoint: mean survival time, dose: 12.0 mg/kg/injection, schedule: Q01DX001 (ip), vehicle: water): 108 % of control
- T/C (endpoint: mean survival time, dose: 48.0 mg/kg/injection, schedule: Q01DX001 (ip), vehicle: distilled water + Tween-80): 108 % of control

SMILES: CCCN(CCC)S(=O)(=O)c1ccc(NC(=O)OC(c2ccccc2)c2ccccc2)cc1
- T/C (endpoint: mean survival time, dose: 100.0 mg/kg/injection, schedule: Q01DX001 (ip), vehicle: saline): 104 % of control
- T/C (endpoint: mean survival time, dose: 200.0 mg/kg/injection, schedule: Q01DX001 (ip), vehicle: saline): 95 % of control
- T/C (endpoint: mean survival time, dose: 400.0 mg/kg/injection, schedule: Q01DX001 (ip), vehicle: saline): 93 % of control

SMILES: O=c1[nH]c(=S)n2ncnc2[nH]1
- T/C (endpoint: mean survival time, dose: 100.0 mg/kg/injection, schedule: Q01DX009 (ip), vehicle: acetone): 97 % of control
- T/C (endpoint: mean survival time, dose: 200.0 mg/kg/injection, schedule: Q01DX009 (ip), vehicle: acetone): 103 % of control
- T/C (endpoint: mean survival time, dose: 400.0 mg/kg/injection, schedule: Q01DX009 (ip), vehicle: acetone): 95 % of control

SMILES: Cc1ccc(NN=O)nc1
- T/C (endpoint: median survival time, dose: 1.5 mg/kg/injection, schedule: Q01DX009 (ip), vehicle: water): 110 % of control
- T/C (endpoint: median survival time, dose: 1.56 mg/kg/injection, schedule: Q01DX009 (ip), vehicle: water): 114 % of control
- T/C (endpoint: median survival time, dose: 3.0 mg/kg/injection, schedule: Q01DX009 (ip), vehicle: water): 114 % of control
- T/C (endpoint: median survival time, dose: 3.12 mg/kg/injection, schedule: Q01DX009 (ip), vehicle: water): 123 % of control
- T/C (endpoint: median survival time, dose: 12.0 mg/kg/injection, schedule: Q01DX009 (ip), vehicle: water): 156 % of control
- T/C (endpoint: median survival time, dose: 24.0 mg/kg/injection, schedule: Q01DX009 (ip), vehicle: water): 115 % of control and 106 % of control

SMILES: Cc1ccc(C#CC(C)(C)O)cn1
- T/C [1]: 94 % of control
- T/C [3]: 102 % of control
- T/C [5]: 122 % of control

SMILES: CSc1nc(Cl)cc(/N=C/N(C)C)n1
- T/C [1]: 102 % of control
- T/C [3]: 98 % of control

SMILES: O=S(=O)(CC(Br)C(Br)CO)c1ccccc1 (stereo not drawn)
- T/C (endpoint: median survival time, dose: 25.0 mg/kg/injection, schedule: Q04DX003 (ip), vehicle: saline with Tween-80): 111 % of control
- T/C (endpoint: median survival time, dose: 50.0 mg/kg/injection, schedule: Q04DX003 (ip), vehicle: saline with Tween-80): 122 % of control
- T/C (endpoint: median survival time, dose: 100.0 mg/kg/injection, schedule: Q04DX003 (ip), vehicle: saline with Tween-80): 111 % of control
- T/C (endpoint: median survival time, dose: 200.0 mg/kg/injection, schedule: Q04DX003 (ip), vehicle: saline with Tween-80): 100 % of control

SMILES: Cc1ncc(CNC(=O)N(CCCl)N=O)c(N)n1
- T/C (endpoint: mean survival time, dose: 3.12 mg/kg/injection, schedule: Q01DX009 (ip), vehicle: saline): 159 % of control
- T/C (endpoint: mean survival time, dose: 3.13 mg/kg/injection, schedule: Q01DX009 (ip), vehicle: saline with Tween-80): 180 % of control
- T/C (endpoint: mean survival time, dose: 6.25 mg/kg/injection, schedule: Q01DX009 (ip), vehicle: saline with Tween-80): 195 % of control
- T/C [9]: 236 % of control
- T/C (endpoint: mean survival time, dose: 12.5 mg/kg/injection, schedule: Q01DX009 (ip), vehicle: saline with Tween-80): 357 % of control
- T/C [10]: 288 % of control
- T/C (endpoint: mean survival time, dose: 17.5 mg/kg/injection, schedule: Q04DX002 (ip), vehicle: saline): 337 % of control
- T/C (endpoint: mean survival time, dose: 25.0 mg/kg/injection, schedule: Q01DX009 (ip), vehicle: saline with Tween-80): 220 % of control
- T/C (endpoint: mean survival time, dose: 35.0 mg/kg/injection, schedule: Q04DX002 (ip), vehicle: saline): 316 % of control
